Measured values from patent publication US6670401B2, “Polysubstituted indan-1-ol compounds, and methods for their preparation and use” (Aventis Pharma Deutschland GmbH, priority 2001, dated 2003).

Experiments:
female NMRI mice = assay: Anorectic action: cumulative evaporated milk consumption after 24 h feed removal; assay type: in vivo, mouse; details: 30 mg/kg i.p.
Experimental: The activity of the compounds was assayed as follows:
The anorectic action was tested on female NMRI mice. After removal of feed for 24 hours, the preparation to be tested was administered intraperitoneally (i.p.) or by gavage (po). The animals were housed singly and, with free access to drinking water, they were offered evaporated milk 30 minutes after administration of the preparation. The consumption of evaporated milk was determined and the general behavior of the animals was monitored every half an hour for 7 hours. The measured milk consumption was compared to that of vehicle-treated control animals.

Structure (SMILES): CC1(O)c2ccc(Cl)cc2CC1(F)S(C)(=O)=O (stereo not drawn) [Example 1, 5-Chloro-2-fluoro-2-methanesulfonyl-1-methylindan-1-ol]
- Reduction in cumulative milk consumption as % of the control (female NMRI mice; compared with vehicle-treated control animals): 25%
- cumulative milk consumption by treated animals (female NMRI mice; milk offered 30 min after administration, monitored for 7 hours, N=4): 4/2.88 ml
- melting point: 148 °C
